Measurements from the supplement of paper PMC10307832.

Assays:
Experiment in all cases: relative viability (nuclei count vs DMSO), 5 days (fraction); higher = more cells survive
Sorafenib + Luminespib = compound: CNC(=O)c1cc(Oc2ccc(NC(=O)Nc3ccc(Cl)c(C(F)(F)F)c3)cc2)ccn1 [Sorafenib] + CCNC(=O)c1noc(-c2cc(C(C)C)c(O)cc2O)c1-c1ccc(CN2CCOCC2)cc1 [Luminespib] (partner 0.01 µM)
Method in brief: (§1)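 Lung cancer cell lines, seeded in 1536-well plates, were treated the following day by pin tool with a single drug or with five library-drug doses (not always all listed) in √10 steps on top of a fixed anchor-drug dose. Cells were fixed and nuclei stained in one step after 5 days, and nuclei were counted. Relative viability is the nuclei count for treated wells divided by that for vehicle wells, reported as medians of duplicate plates.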

Sorafenib + Foretinib = compound: CNC(=O)c1cc(Oc2ccc(NC(=O)Nc3ccc(Cl)c(C(F)(F)F)c3)cc2)ccn1 [Sorafenib] + COc1cc2c(Oc3ccc(NC(=O)C4(C(=O)Nc5ccc(F)cc5)CC4)cc3F)ccnc2cc1OCCCN1CCOCC1 [Foretinib] (partner 0.25 µM)
Method in brief: as §1

Sorafenib + Palbociclib = compound: CNC(=O)c1cc(Oc2ccc(NC(=O)Nc3ccc(Cl)c(C(F)(F)F)c3)cc2)ccn1 [Sorafenib] + CC(=O)c1c(C)c2cnc(Nc3ccc(N4CCNCC4)cn3)nc2n(C2CCCC2)c1=O [Palbociclib] (partner 0.5 µM)
Method in brief: as §1

Sorafenib + Pemetrexed = compound: CNC(=O)c1cc(Oc2ccc(NC(=O)Nc3ccc(Cl)c(C(F)(F)F)c3)cc2)ccn1 [Sorafenib] + Nc1nc2[nH]cc(CCc3ccc(C(=O)N[C@@H](CCC(=O)O)C(=O)O)cc3)c2c(=O)[nH]1 [Pemetrexed] (partner 0.2 µM)
Method in brief: as §1

Sorafenib + Vorinostat = compound: CNC(=O)c1cc(Oc2ccc(NC(=O)Nc3ccc(Cl)c(C(F)(F)F)c3)cc2)ccn1 [Sorafenib] + O=C(CCCCCCC(=O)Nc1ccccc1)NO [Vorinostat] (partner 1 µM)
Method in brief: as §1

Cell Line	relative viability (Sorafenib + Luminespib; first compound 0.08 µM)	relative viability (Sorafenib + Luminespib; first compound 0.253 µM)	relative viability (Sorafenib + Luminespib; first compound 2.53 µM)	relative viability (Sorafenib + Luminespib; first compound 8 µM)	relative viability (Sorafenib + Foretinib; first compound 0.08 µM)	relative viability (Sorafenib + Foretinib; first compound 0.253 µM)	relative viability (Sorafenib + Foretinib; first compound 2.53 µM)	relative viability (Sorafenib + Foretinib; first compound 8 µM)	relative viability (Sorafenib + Palbociclib; first compound 0.08 µM)	relative viability (Sorafenib + Palbociclib; first compound 0.253 µM)	relative viability (Sorafenib + Palbociclib; first compound 2.53 µM)	relative viability (Sorafenib + Palbociclib; first compound 8 µM)	relative viability (Sorafenib + Pemetrexed; first compound 0.08 µM)	relative viability (Sorafenib + Pemetrexed; first compound 0.253 µM)	relative viability (Sorafenib + Pemetrexed; first compound 2.53 µM)	relative viability (Sorafenib + Pemetrexed; first compound 8 µM)	relative viability (Sorafenib + Vorinostat; first compound 0.08 µM)	relative viability (Sorafenib + Vorinostat; first compound 0.253 µM)	relative viability (Sorafenib + Vorinostat; first compound 2.53 µM)	relative viability (Sorafenib + Vorinostat; first compound 8 µM)
PC-14	0.138	0.138	0.19	0.138	1.02	0.945	1.11	0.913	0.62	0.512	0.518	0.158	0.133	0.137	0.123	0.102	0.833	0.721	0.641	0.481
LCLC-103H	0.964	0.939	1.03	0.837	0.793	0.794	0.813	0.882	0.415	0.461	0.479	0.52	0.526	0.437	0.422	0.451	0.813	0.75	0.778	0.737
SW 900	0.147	0.16	0.171	0.165	1.2	0.888	0.782	0.604	0.566	0.568	0.498	0.63	0.462	0.479	0.517	0.471	0.71	0.398	0.72	0.618
EKVX	0.963	0.864	0.808	0.854	1.09	0.748	0.672	0.606	0.425	0.43	0.432	0.321	0.511	0.365	0.375	0.389	0.718	0.723	0.832	0.803
LXF-289	0.706	0.648	0.634	0.588	–	0.992	1.06	0.943	0.612	0.618	0.74	0.616	0.886	0.782	0.932	0.787	0.758	0.757	0.848	0.681
HCC-827	0.709	0.525	0.59	0.638	1.1	0.981	1.02	1.02	0.572	0.478	0.492	0.514	0.255	0.288	0.281	0.251	0.837	0.572	0.844	0.667
NCI-H1666	–	1.03	0.951	0.872	0.976	0.93	–	0.889	0.602	0.566	0.634	0.717	0.916	0.856	–	0.62	1.01	0.873	1.05	0.966
NCI-H441	0.326	–	0.29	0.287	1.11	–	0.957	0.782	0.222	0.245	0.252	0.164	0.283	0.234	0.257	0.227	0.638	0.756	0.547	0.47
HCC-15	0.533	0.26	0.338	0.185	0.999	0.933	1	0.869	0.77	0.619	0.708	0.48	0.253	0.211	0.22	0.145	0.973	0.764	0.83	0.576
NCI-H520	0.21	0.216	0.232	0.218	0.71	0.71	0.736	0.406	0.192	0.208	0.225	0.172	0.731	0.781	0.58	0.199	0.673	0.597	0.606	0.27
H3255	1	0.781	0.925	–	1.06	–	0.829	0.567	0.33	0.3	0.306	0.287	0.636	0.554	0.587	0.47	–	0.722	0.723	0.618
NCI-H460	0.0329	0.0278	0.0236	0.0147	0.972	0.997	0.972	0.622	0.176	0.118	0.136	0.137	0.0604	0.0653	0.0731	0.0582	0.748	0.582	0.611	0.363
PC-3 [JPC-3]	0.67	0.687	0.717	0.637	1.07	1.05	0.985	0.882	0.522	0.552	0.576	0.606	1.11	0.856	1.34	1.2	0.886	0.555	1.1	0.883
NCI-H2170	0.527	0.707	0.706	0.592	1.02	0.994	0.986	0.967	0.379	0.327	0.401	0.325	0.258	0.278	0.27	0.208	0.842	0.665	0.856	0.576
NCI-H2405	0.868	0.705	0.79	0.446	1.14	1.04	1.07	0.92	0.553	0.517	0.561	0.477	1.12	0.902	1.13	0.982	1.09	0.801	1.09	0.706
NCI-H650	0.809	0.639	0.605	0.677	1.02	0.863	0.942	0.857	0.435	0.303	0.268	0.355	0.928	0.799	0.904	0.795	0.855	0.257	0.371	0.449
201T	1.06	1.12	–	1.04	1.23	–	1.11	0.884	0.34	0.343	0.36	0.357	0.334	0.302	0.334	0.328	1.01	0.946	0.963	0.926
NCI-H2126	0.981	–	0.882	0.864	1.26	1.09	1.1	1.2	0.354	0.375	0.411	0.399	0.763	0.672	0.681	0.706	0.88	0.747	0.828	0.799
NCI-H322M	1.03	1.03	1.24	1.06	1.19	0.994	1.14	1.05	0.524	0.589	0.525	0.63	0.728	0.618	0.739	0.763	1.02	0.886	1.02	1.17
LCLC-97TM1	0.97	0.743	0.716	0.56	0.959	0.837	0.897	0.926	0.251	0.195	0.182	0.184	0.154	0.168	0.118	0.226	0.68	0.674	0.65	0.576
NCI-H1993	0.921	0.489	0.999	0.543	0.778	0.746	0.86	0.543	0.662	0.656	0.751	0.565	0.566	0.597	0.528	0.43	0.973	0.726	1.1	0.633
NCI-H1651	0.965	0.778	0.958	0.319	0.923	–	0.787	0.515	0.556	0.52	0.533	0.516	0.575	0.601	0.611	0.511	0.504	0.461	0.6	0.542
NCI-H358	0.242	0.285	0.295	0.239	0.786	0.723	–	0.489	0.137	0.127	0.182	0.128	0.168	0.146	0.145	0.144	0.666	0.712	0.594	0.208
NCI-H2347	0.625	0.433	0.763	0.62	1.41	0.673	0.953	0.775	0.432	0.464	0.434	0.43	0.442	0.398	0.425	0.413	0.694	0.543	0.524	0.52
LU99A	0.359	0.25	0.204	0.318	0.741	0.758	0.78	0.728	0.431	0.445	0.39	0.393	0.195	0.166	0.193	0.138	0.487	0.445	0.437	0.192
NCI-H1975	0.426	0.201	0.24	0.153	–	0.958	0.994	0.649	0.712	0.49	0.656	0.311	0.3	0.285	0.294	0.209	0.788	0.787	0.72	0.436
NCI-H2342	0.662	0.637	0.597	0.582	1	1	0.914	0.568	0.53	0.523	0.556	0.533	–	0.729	0.78	0.532	0.806	0.628	0.689	0.645
